Earlier results in patent US6765009B2, “1,4-Disubstituted benzo-fused compounds” (Boehringer Ingelheim Pharmaceuticals, Inc., priority 2001, dated 2004).

Key:
closed brain injury = settings: experimental model
rheumatoid arthritis = settings: Phase III clinical trial
septic shock syndrome = settings: phase III human clinical trial

CCCCCCC(C)(C)c1cc(O)c2c(c1)OC(C)(C)[C@H]1CC=C(CO)C[C@H]21 [HU-211]
outcome of closed brain injury (closed brain injury): improve the outcome

Enbrel
efficacy in treatment of rheumatoid arthritis (rheumatoid arthritis): demonstrated efficacy

IL-1ra: "IL-1 receptor antagonist (IL-1ra) had been examined in human clinical trials" ... "(Antril, Amgen)"
mortality rate in patients with septic shock syndrome (septic shock syndrome): reduced the mortality rate
